Patent US12502369B2, “Methods of cancer treatment” (K-GEN, INC., priority 2015, dated 2025)
Like-named read-outs stand apart in the source and are kept apart here.

Tests used:
RPMI8226 = assay: Proliferation assay (CellTiter Glo), RPMI8226; format: cell-based; details: RPMI8226 (K-ras: G12A)
Description: (§1) Briefly, cells at a density of 1,000-10,000 cells/well were seeded in 96-well plates and incubated at 37′C for 24 hours. A series of 9 different concentrations of compound stocks (500×) were created by 3-fold serial dilution in DMSO. These compounds were further diluted in culture media and then added to cells so that the final DMSO concentration was 0.2%. After 96 hours of incubation, 50 μL of CellTiter Glo reagent (Promega) was added to each well and luminescence was measured after 10 minutes using EnVision (PerkinElmer). […] The dose range for most compounds was 4.6 nM-30 μM. The dose ranges for some compounds were adjusted downward to 0.46 nM-3 μM or 0.08 nM-0.5 μM or 0.03 nM-0.2 μM. Luminescence from cells treated with […] alone was set as Max and % of inhibition was calculated as follows: Inhibition %=(Max-Sample value)/Max*100. Data was analyzed using XL-fit software (ID Business Solutions Ltd.) and EC50, relative EC50, and % of top inhibition were calculated.
(§2) Other cancer cell lines having wild-type K-ras status and K-ras mutation at G12 were also screened using the PKC activator compounds. […] K-104 was tested in a range of 0.03 nM-0.2 μM. […] The dose ranges were adjusted downward to 0.46 nM-3 μM for K-102 and 0.08 nM-0.5 μM for K-103 for some cell lines.

KP-4 = assay: Proliferation assay (CellTiter Glo), KP-4; format: cell-based; details: for Top inhibition %: 96 hours
Description: as §1, with “calculated. The results are shown in Tables 3-6 for pancreatic cancer, lung cancer, colon/gastric cancer, and leukemia cell lines.” for “calculated.”

Colo205 = assay: Proliferation assay (CellTiter Glo), Colo205; format: cell-based; details: Colo205 (WT K-ras)
Description: as §1, §2

H1915 = assay: Proliferation assay (CellTiter Glo), H1915; format: cell-based; details: H1915 (WT K-ras)
Description: as §1, §2

THP1 = assay: Proliferation assay (CellTiter Glo), THP1; format: cell-based; details: for Top inhibition %: 96 hours
Description: as §1, with “calculated. The results are shown in Tables 3-6 for pancreatic cancer, lung cancer, colon/gastric cancer, and leukemia cell lines.” for “calculated.”

H838 = assay: Proliferation assay (CellTiter Glo), H838; format: cell-based; details: H838 (WT K-ras)
Description: as §1, §2

SW900 = assay: Proliferation assay (CellTiter Glo), SW900; format: cell-based; details: SW900 (K-ras: G12V)
Description: as §1, §2

AsPC-1 = assay: Proliferation assay (CellTiter Glo), AsPC-1; format: cell-based; details: for Top inhibition %: 96 hours
Description: as §1, with “calculated. The results are shown in Tables 3-6 for pancreatic cancer, lung cancer, colon/gastric cancer, and leukemia cell lines.” for “calculated.”

HL60 = assay: Proliferation assay (CellTiter Glo), HL60; format: cell-based; details: for Top inhibition %: 96 hours
Description: as §1, with “calculated. The results are shown in Tables 3-6 for pancreatic cancer, lung cancer, colon/gastric cancer, and leukemia cell lines.” for “calculated.”

AGS = assay: Proliferation assay (CellTiter Glo), AGS; format: cell-based; details: for Top inhibition %: 96 hours
Description: as §1, with “calculated. The results are shown in Tables 3-6 for pancreatic cancer, lung cancer, colon/gastric cancer, and leukemia cell lines.” for “calculated.”

H358 = assay: Proliferation assay (CellTiter Glo), H358; format: cell-based; details: for Top inhibition %: 96 hours
Description: as §1, with “calculated. The results are shown in Tables 3-6 for pancreatic cancer, lung cancer, colon/gastric cancer, and leukemia cell lines.” for “calculated.”

Capan-1 = assay: Proliferation assay (CellTiter Glo), Capan-1; format: cell-based; details: for Top inhibition %: 96 hours
Description: as §1, with “calculated. The results are shown in Tables 3-6 for pancreatic cancer, lung cancer, colon/gastric cancer, and leukemia cell lines.” for “calculated.”

A549 = assay: Proliferation assay (CellTiter Glo), A549; format: cell-based; details: for Top inhibition %: 96 hours
Description: as §1, with “calculated. The results are shown in Tables 3-6 for pancreatic cancer, lung cancer, colon/gastric cancer, and leukemia cell lines.” for “calculated.”

HCT116 = assay: Proliferation assay (CellTiter Glo), HCT116; format: cell-based; details: for Top inhibition %: 96 hours
Description: as §1, with “calculated. The results are shown in Tables 3-6 for pancreatic cancer, lung cancer, colon/gastric cancer, and leukemia cell lines.” for “calculated.”

CCRF-CEM = assay: Proliferation assay (CellTiter Glo), CCRF-CEM; format: cell-based; details: for Top inhibition %: 96 hours
Description: as §1, with “calculated. The results are shown in Tables 3-6 for pancreatic cancer, lung cancer, colon/gastric cancer, and leukemia cell lines.” for “calculated.”

SW620 = assay: Proliferation assay (CellTiter Glo), SW620; format: cell-based; details: for Top inhibition %: 96 hours; for EC50: read-out: Ab EC50
Description: as §1, with “calculated. The results are shown in Tables 3-6 for pancreatic cancer, lung cancer, colon/gastric cancer, and leukemia cell lines.” for “calculated.”

MiaPaCa-2 = assay: Proliferation assay (CellTiter Glo), MiaPaCa-2; format: cell-based; details: for Top inhibition %: 96 hours
Description: as §1

[1] = tested on: PKCδ, PKCμ, c-Raf in MH22A; assay: Activation of PKC isoforms in hepatoma cell line MH22A, Western blot; format: cell-based, mouse
[2] = tested on: PKCδ, PKCμ, c-Raf in MBT-2; assay: Activation of PKC isoforms in bladder cancer line MBT-2, Western blot; format: cell-based, mouse
lymphoma cell lines = assay: Proliferation assay, 9 lymphoma cell lines; format: cell-based; details: for IC50: among the sensitive lymphoma cell lines, read-out: IC50 ranges
Description: PKC activators were tested in 9 lymphoma cell lines (Table 10). Proliferation assays were performed as described in Example 1.

[3] = tested on: PKCμ and PKCδ in HFL-1 cells; assay: Activation of PKC isoforms in non-cancerous lung fibroblast HFL-1 cells; format: cell-based, human; details: 30 minutes
MH22A = assay: Anti-cell proliferative effects, MH22A; format: cell-based, mouse
[4] = absolute EC50, 96 hours, read-out: Ab EC50
[5] = relative EC50, 96 hours, read-out: Re EC50
[6] = Homo sapiens, absolute EC50, 96 hours, read-out: Ab EC50
[7] = Homo sapiens, relative EC50, 96 hours, read-out: Re EC50
[8] = 9 lymphoma cell lines of Table 10

## CC(=O)OCC1=C[C@H]2[C@@H]3C(C)(C)[C@]3(OC(C)=O)C[C@@H](C)[C@]2(O)C2C=C(C)C(=O)[C@@]2(O)C1 (stereo partly drawn) [Compound K-101E]
RPMI8226
  Top inhibition %: 32.25%
KP-4
  Top inhibition %: 69.1%
KP-4; [4]
  EC50: 1280 nM
KP-4; [5]
  EC50: 680 nM
Colo205
  Top inhibition %: 85.8%
H1915
  Top inhibition %: 35.6%
THP1
  Top inhibition %: 51.6%
THP1; [4]
  EC50: 3600 nM
THP1; [5]
  EC50: 1020 nM
H838
  Top inhibition %: 26.8%
SW900
  Top inhibition %: 25.4%
AsPC-1
  Top inhibition %: 35.2%
AsPC-1; [4]
  EC50: > 30000 nM
AsPC-1; [5]
  EC50: 2780 nM
HL60
  Top inhibition %: 63.4%
HL60; [4]
  EC50: 3050 nM
HL60; [5]
  EC50: 1920 nM
AGS
  Top inhibition %: 25.9%
AGS; [4]
  EC50: > 30000 nM
AGS; [5]
  EC50: 4380 nM
H358
  Top inhibition %: 47.9%
H358; [4]
  EC50: > 30000 nM
H358; [5]
  EC50: 1250 nM
Capan-1
  Top inhibition %: 44.6%
Capan-1; [4]
  EC50: > 30000 nM
Capan-1; [5]
  EC50: 830 nM
A549
  Top inhibition %: 78.7%
A549; [4]
  EC50: 2640 nM
A549; [5]
  EC50: 1560 nM
HCT116
  Top inhibition %: 27.4%
HCT116; [4]
  EC50: > 30000 nM
HCT116; [5]
  EC50: 6640 nM
CCRF-CEM
  Top inhibition %: 34.3%
CCRF-CEM; [4]
  EC50: > 30000 nM
CCRF-CEM; [5]
  EC50: 270 nM
SW620
  Top inhibition %: 0.0%
SW620; absolute EC50, 96 hours
  EC50: > 30000 nM
MiaPaCa-2
  Top inhibition %: 61.4%
MiaPaCa-2; [4]
  EC50: 1880 nM
MiaPaCa-2; [5]
  EC50: 860 nM

## CC(=O)O[C@@]12C[C@@H](C)[C@]3(O)C4C=C(C)C(=O)[C@@]4(O)CC(CO)=C[C@H]3[C@@H]1C2(C)C (stereo partly drawn) [Compound K-101A, Prostratin]
RPMI8226
  Top inhibition %: 32.39%
KP-4
  Top inhibition %: 63.3%
KP-4; [6]
  EC50: 400 nM
KP-4; [7]
  EC50: 190 nM
Colo205
  Top inhibition %: 83.6%
H1915
  Top inhibition %: 27.7%
THP1
  Top inhibition %: 51.8%
THP1; Homo sapiens, THP-1, absolute EC50, 96 hours, read-out: Ab EC50
  EC50: 870 nM
THP1; Homo sapiens, THP-1, relative EC50, 96 hours, read-out: Re EC50
  EC50: 300 nM
H838
  Top inhibition %: 10.1%
SW900
  Top inhibition %: 7.1%
AsPC-1
  Top inhibition %: 32.4%
AsPC-1; Homo sapiens, ASPC1, absolute EC50, 96 hours, read-out: Ab EC50
  EC50: > 30000 nM
AsPC-1; Homo sapiens, ASPC1, relative EC50, 96 hours, read-out: Re EC50
  EC50: 270 nM
HL60
  Top inhibition %: 61.3%
HL60; Homo sapiens, HL-60, absolute EC50, 96 hours, read-out: Ab EC50
  EC50: 470 nM
HL60; Homo sapiens, HL-60, relative EC50, 96 hours, read-out: Re EC50
  EC50: 400 nM
[1]
  phosphorylation of PKCδ at Thr505, PKCμ at Ser744/748, PKCμ at Ser916, c-Raf at Ser338: did not induce further phosphorylation
[2]
  phosphorylations of PKCδ at Thr505, PKCμ at Ser744/748, PKCμ at Ser916, c-Raf at Ser338: induced phosphorylations
Lymphoma cell lines; [8]
  sensitivity of lymphoma cell lines: Seven lymphoma cell lines were very sensitive
Lymphoma cell lines; Daudi and Raji
  sensitivity of lymphoma cell lines: not sensitive
Lymphoma cell lines
  IC50: 77 to 284 nM
AGS
  Top inhibition %: 21.7%
AGS; [6]
  EC50: > 30000 nM
AGS; [7]
  EC50: 490 nM
H358
  Top inhibition %: 56.4%
H358; Homo sapiens, NCI-H358, absolute EC50, 96 hours, read-out: Ab EC50
  EC50: 4900 nM
H358; Homo sapiens, NCI-H358, relative EC50, 96 hours, read-out: Re EC50
  EC50: 160 nM
Capan-1
  Top inhibition %: 37.1%
Capan-1; [6]
  EC50: > 30000 nM
Capan-1; [7]
  EC50: 310 nM
A549
  Top inhibition %: 76.0%
A549; [6]
  EC50: 490 nM
A549; [7]
  EC50: 270 nM
[3]
  phosphorylation of PKCμ at Ser916 and Ser744/748, and PKCδ at Thr505 and Tyr311: resulted in phosphorylation
HCT116
  Top inhibition %: 17.4%
HCT116; Homo sapiens, HCT-116, absolute EC50, 96 hours, read-out: Ab EC50
  EC50: > 30000 nM
CCRF-CEM
  Top inhibition %: 35.9%
CCRF-CEM; [6]
  EC50: > 30000 nM
CCRF-CEM; [7]
  EC50: 51 nM
SW620
  Top inhibition %: 0.0%
SW620; Homo sapiens, SW-620, absolute EC50, 96 hours
  EC50: > 30000 nM
MiaPaCa-2
  Top inhibition %: 74.4%
MiaPaCa-2; Homo sapiens, MIA PaCa-2, absolute EC50, 96 hours, read-out: Ab EC50
  EC50: 300 nM
MiaPaCa-2; Homo sapiens, MIA PaCa-2, relative EC50, 96 hours, read-out: Re EC50
  EC50: 180 nM
MH22A
  sensitivity to anti-cell proliferative effects: insensitive

## C/C=C(/C)C(=O)O[C@H]1C(C)=C[C@]23C(=O)[C@@H](C=C(CO)[C@@H](O)[C@]12O)[C@H]1[C@@H](C[C@H]3C)C1(C)C [Compound K-102, Ingenol-3-angelate, reference compound]
[1]; MH22A, basal levels high, K101A 1 μM, K102 0.1 μM
  phosphorylation of PKCδ at Thr505, PKCμ at Ser744/748, PKCμ at Ser916, c-Raf at Ser338: did not induce further phosphorylation
[2]; MBT-2, K101A 1 μM, K102 0.1 μM
  phosphorylations of PKCδ at Thr505, PKCμ at Ser744/748, PKCμ at Ser916, c-Raf at Ser338: induced phosphorylations
Lymphoma cell lines; [8]
  sensitivity of lymphoma cell lines: Seven lymphoma cell lines were very sensitive
Lymphoma cell lines; Daudi and Raji
  sensitivity of lymphoma cell lines: not sensitive
Lymphoma cell lines
  IC50: 0.8 to 5 nM
[3]
  phosphorylation of PKCμ at Ser916 and Ser744/748, and PKCδ at Thr505 and Tyr311: resulted in phosphorylation
MH22A
  sensitivity to anti-cell proliferative effects: insensitive
